Laboratory results taken from patent publication US11725015B2, “Macrocyclic compound and uses thereof” (President and Fellows of Harvard College, priority 2017, dated 2023).

Legend:
[1] = test system: HSC-2-Luc orthotopic transplantation (tongue); assay: HSC-2 orthotopic transplantation mouse model; format: in vivo, mice; conditions: Q7D×3
[2] = various in vivo models; cited from earlier work
[3] = in comparison with Halichondrin B; cited from earlier work
[4] = not only in vitro but also in vivo; cited from earlier work

Question: For `N.N.[Cl][Pt][Cl]` [Cisplatin, cisplatin, reference compound], which “ILS (%)” value ([1]; 5 mg/kg intravenously + cetuximab 5 mg/kg) is on record?
Answer: The value was 150%.

Question: And the “ILS (%)” value ([1]; 5 mg/kg intravenously, without cetuximab)?
Answer: Its value is 0%.

Question: For `C=C1C[C@@H]2CC[C@@]34C[C@@]5(O)O[C@H]6[C@@H](O3)[C@H]3O[C@H](CC[C@@H]3O[C@H]6[C@H]5O4)CC(=O)O[C@@H]3[C@@H](C)[C@@H]4O[C@@H]5C[C@]6(C[C@@H]7O[C@]8(C[C@H](C)[C@@H]9O[C@H]([C@@H](O)C[C@@H](O)CO)C[C@@H]9O8)C[C@H](C)[C@@H]7O6)O[C@@H]5C[C@@H]4O[C@H]3C[C@H]3O[C@@H](CC[C@@H]1O2)C[C@@H](C)C3=C` [Halichondrin C], which activity in vivo [2] is on record?
Answer: The activity in vivo was “active in various in vivo models”.

Question: What about the “stability in aqueous solution” value [3] of the same molecule?
Answer: The value was “unstable in aqueous solution”.

Question: For `C=C1C[C@@H]2CC[C@@]34C[C@H]5O[C@H]6[C@@H](O3)[C@H]3O[C@H](CC[C@@H]3O[C@H]6[C@H]5O4)CC(=O)O[C@@H]3[C@@H](C)[C@@H]4O[C@@H]5C[C@]6(CC7O[C@@]8(C[C@H](C)C7O6)C[C@H](C)[C@@H]6O[C@H](CC(=O)O)[C@H](O)C[C@@H]6O8)O[C@@H]5CC4O[C@H]3C[C@H]3O[C@@H](CC[C@@H]1O2)C[C@@H](C)C3=C` (some centres unmarked) [Norhalichondrin B], which “anti-tumor activity compared with Halichondrin B” value [4] is on record?
Answer: Its value is “much weaker than Halichondrin B”.
